Patent US20190187155A1, “COMPOSITION AND METHODS FOR MEASURING ION CHANNEL ACTIVITY IN A CELL” (LIFE TECHNOLOGIES CORPORATION, priority 2016, published 2019)

Tested on: CHO cells expressing the hERG ion channel
Test: Thallium influx assay of cells expressing the hERG potassium ion channel, loaded with thallium ion indicator
Format: cell-based
Conditions: for Fold Increase Over Baseline (fluorogenic response): loaded 60 minutes, potassium 10 mM; for Fold Increase Over Baseline (fluorogenic response) / detection of thallium ions (fluorescence dF/F over time): final thallium 2 mM; for change of fold increase (fluorogenic response) with dye loading concentration: dye concentration increased from 1 μM to 2 μM; for detection of thallium ions (fluorescence dF/F over time) / response (signal amplitude) post stimulus, Compound 8 relative to Compound 9: FIG. 10, average of 5-10 wells; for response (signal amplitude) post stimulus, Compound 8 relative to Compound 9: fold increase in signal post stimulus over baseline
Protocol: Component A: Thallium ion indicator dye in amount that will prepare 1-10 uM solution in normal Chloride Assay Buffer. Component B: Physiological (normal) Chloride Assay Buffer: NaCl 145 mM; KCl 2.5 mM; CaCl2 1.8 mM; MgCl2 1.0 mM; HEPES 20 mM; pH set to 7.4 with NaOH. Component C: Chloride Free Stimulus Buffer: 140 mM Na Gluconate; 2.5 mM K Gluconate; 1.8 […] Ca Gluconate; 1.0 mM Mg Gluconate; 10 mM HEPES; 25 mM K2SO4; 5.0 mM Tl2SO4.
Cells including an ion channel are cultured to about 75% confluence and in log-phase growth. The cells are then harvested using well-known cell culture techniques and buffers and replated into a 96 well plate at a density of, for example, 5,000-40,000 cells per well (e.g., 20,000 cells per well). The cells comprise the ion channel endogenously, or the cells can be engineered to comprise ion channels of a particular type. Methods of transfecting and/or transforming cells to express a particular type of protein are well known in the art and need not be repeated herein.
To prepare the dye loading buffer, Component A is prepared in assay buffer (Component B) at concentrations from 1-20 micromolar. Optional addition of 1-100 μg/mL Pluronic surfactant can aid-in dispersion and loading of dye and/or 1-10 mM probenecid to aid in retention of the dye. Next the cell culture media is aspirated from the cells in the 96 well plate and replaced with dye loading buffer and incubated at room temperature for 60-120 minutes. While the cells are incubating in loading buffer, stimulus buffer (Component C) is prepared for addition to the microplate. The loading buffer then is removed from the cells, and replaced with […] that contains no dye, to reduce background fluorescence from unincorporated dye in the solution. Next, the fluorescence from the cells is read on a spectrophotometer. For samples implementing a thallium indicator that emits in the green spectral region, the sample is excited with light in the range of 470-500 nm, and emission is read at 520 to 540 nm, with a filter cutoff of 515 nm. For samples implementing a thallium indicator that emits in the red spectral region, the sample is excited with light in the range of 545-565 nm and read at 580-600 nm, with a filter cutoff of 570 nm. A pre-stimulus “baseline” signal is measured at regular intervals for 10-30 seconds in advance of adding Stimulus Buffer (Component C). Component C is added to the cells in a 1:5 dilution at the indicated time, and the increase in fluorescence from the cells is measured over time.
Cells expressing the hERG potassium ion channel were assayed using the method described in Example 10 to compare the efficacy of two different isomeric thallium ion indicators. CHO cells expressing the hERG ion channel were assayed using methods described herein. Cells were loaded in assay buffer containing the indicated concentration of dye in Table 1 (i.e., 1 or 10 μM) washed with dye-free assay buffer (Component B) and the stimulus buffer (Component C) was delivered to the cells in a volume of 25 μL, added to 100 μL for a 5× dilution (Component C, containing 25 mM T K2SO4 and […]). In this particular example, the final concentration of potassium on the cells was 10 mM and the final concentration of thallium on the cells was 2 mM. […] Fluorescence data from the samples was plotted over time as fold increase in signal (post stimulus) over baseline (pre stimulus). Signal amplitude was compared from an average of 5-10 individual wells loaded with the dye indicated.
Cells expressing the hERG potassium ion channel were assayed using the thallium influx method described in Example 11 to compare the efficacy of various thallium ion indicators disclosed herein. Thallium indicators were prepared in loading buffer at the concentrations listed in Table 1 and loaded into cells for 60 minutes. […]

[1] = dye loading concentration 1 μM, excitation 470-500 nm, emission 520-540 nm
[2] = dye loading concentration 2 μM, excitation 470-500 nm, emission 520-540 nm

SMILES | Fold Increase Over Baseline (fluorogenic response) (dye loading concentration 10 μM, excitation 545-565 nm, emission 580-600 nm) | change of fold increase (fluorogenic response) with dye loading concentration | Fold Increase Over Baseline (fluorogenic response) [1] | Fold Increase Over Baseline (fluorogenic response) [2] | detection of thallium ions (fluorescence dF/F over time) | response (signal amplitude) post stimulus, Compound 8 relative to Compound 9 | response (signal amplitude) post stimulus, Compound 8 relative to Compound 9 (listed as compound 8)
COc1cc(-c2c3ccc(=[N+](C)C)cc-3oc3cc(N(C)C)ccc23)ccc1N(CC(=O)OCOC(C)=O)CC(=O)OCOC(C)=O.[Br-] [Compound 1, N-(9-(4-(bis(2-(acetoxymethoxy)-2-oxoethyl)amino)-3-methoxyphenyl)-6-(dimethylamino)-3H-xanthen-3-ylidene)-N-methylmethanaminium bromide] | 2.7 fold |  |  |  |  |  | 
COc1ccc(NC(=O)c2ccc3c(c2)C(=O)OC32c3ccc(OC(C)=O)cc3Oc3cc(OC(C)=O)ccc32)cc1N(CC(=O)OCOC(C)=O)CC(=O)OCOC(C)=O [Compound 2, bis(acetoxymethyl) 2,2′-((5-(3′,6′-diacetoxy-3-oxo-3H-spiro[isobenzofuran-1,9′-xanthene]-5-carboxamido)-2-methoxyphenyl)azanediyl)diacetate] |  | little to no change | 1.2 fold | 1.3 fold |  |  | 
COc1ccc(NC(=O)c2ccc3c(c2)C2(OC3=O)c3ccc(OC(C)=O)cc3Oc3cc(OC(C)=O)ccc32)cc1N(CC(=O)OCOC(C)=O)CC(=O)OCOC(C)=O [Compound 3, bis(acetoxymethyl) 2,2′-((5-(3′,6′-diacetoxy-3-oxo-3H-spiro[isobenzofuran-1,9′-xanthene]-6-carboxamido)-2-methoxyphenyl)azanediyl)diacetate] |  |  | 1.1 fold | 0.8 fold |  |  | 
COc1ccc(NC(=O)c2ccc3c(c2)C2(OC3=O)c3cc(F)c(OC(C)=O)cc3Oc3cc(OC(C)=O)c(F)cc32)cc1N(CC(=O)OCOC(C)=O)CC(=O)OCOC(C)=O [Compound 4, bis(acetoxymethyl) 2,2′-((5-(3′,6′-diacetoxy-2′,7′-difluoro-3-oxo-3H-spiro[isobenzofuran-1,9′-xanthene]-6-carboxamido)-2-methoxyphenyl)azanediyl)diacetate] |  |  | 1.5 fold | 1.4 fold |  |  | 
COc1cc(NC(=O)c2ccc3c(c2)C(=O)OC32c3ccc(OC(C)=O)cc3Oc3cc(OC(C)=O)ccc32)ccc1N(CC(=O)OCOC(C)=O)CC(=O)OCOC(C)=O [Compound 5, bis(acetoxymethyl) 2,2′-((4-(3′,6′-diacetoxy-3-oxo-3H-spiro[isobenzafuran-1,9′-xanthene]-5-carboxamido)-2-methoxyphenyl)azanediyl)diacetate] |  | decreased significantly | 3.7 fold | 3.1 fold |  |  | 
COc1cc(NC(=O)c2ccc3c(c2)C2(OC3=O)c3ccc(OC(C)=O)cc3Oc3cc(OC(C)=O)ccc32)ccc1N(CC(=O)OCOC(C)=O)CC(=O)OCOC(C)=O [Compound 6, bis(acetoxymethyl) 2,2′-((4-(3′,6′-diacetoxy-3-oxo-3H-spiro[isobenzofuran-1,9′-xathene]-6-carboxamido)-2-methoxyphenyl)azanediyl)diacetate] |  |  | 3.7 fold | 2.8 fold |  |  | 
COc1cc(NC(=O)c2ccc3c(c2)C2(OC3=O)c3cc(F)c(OC(C)=O)cc3Oc3cc(OC(C)=O)c(F)cc32)ccc1N(CC(=O)OCOC(C)=O)CC(=O)OCOC(C)=O [Compound 7, bis(acetoxymethyl) 2,2′-((4-(3′,6′-diacetoxy-2′,7′-difluroro-3-oxo-3H-spiro[isobenzofuran-1,9′-xanthene]-6-carboxamido)-2-methoxyphenyl)azanediyl)diacetate] |  |  | 2.3 fold | 1.5 fold |  |  | 
COc1cc(NC(=O)c2ccc3c(c2)C(=O)OC32c3cc(F)c(OC(C)=O)cc3Oc3cc(OC(C)=O)c(F)cc32)ccc1N(CC(=O)OCOC(C)=O)CC(=O)OCOC(C)=O [Compound 8, bis(acetoxymethyl) 2,2′-((4-(3′,6′-diacetoxy-2′,7′-difluoro-3-oxo-3H-spiro[isobenzofuran-1,9′-xanthene]-5-carboxamido)-2-methoxyphenyl)azanediyl)diacetate] |  | not affected | 3.4 fold | 3.4 fold | detected the presence of thallium ions | far more sensitive to thallium ions than Compound 9 | larger response (signal amplitude)
COc1ccc(NC(=O)c2ccc3c(c2)C(=O)OC32c3cc(F)c(OC(C)=O)cc3Oc3cc(OC(C)=O)c(F)cc32)cc1N(CC(=O)OCOC(C)=O)CC(=O)OCOC(C)=O [Compound 9, bis(acetoxymethyl) 2,2′-((5-(3′,6′-diacetoxy-2′,7′-difluoro-3-oxo-3H-spiro[isobenzofuran-1,9′-xanthene]-5-carboxamido)-2-methoxyphenyl)azanediyl)diacetate] |  | not affected | 2.0 fold | 2.0 fold | detected the presence of thallium ions |  | 
